Results: US20080214611A1, “Pharmaceutical Compositions - 659” (AstraZeneca AB, priority 2007, published 2008)

How the values were obtained:
[1] = in vivo rat study: plasma concentration after oral administration of amorphous versus wet-milled crystalline dispersions; details: 100 mmol/kg, maximum plasma concentration ratio of amorphous dispersion (Example 1 or 2) to wet-milled crystalline dispersion
Procedure: (§1) The dispersions prepared according to Example 1 and Example 2 were tested in in vivo rat study together with dispersions comprising crystalline particles (prepared by wet milling) of compound A and B, respectively. The dispersions were orally administered at 100 mmol/kg.
(§2) The open circles illustrate the results obtained upon administration of the dispersions comprising crystalline particles.

[2] = rat, in vivo, po
Procedure: as §1, §2

c^maxamorph/c^maxcrystal [1]	Compound	AUCamorph/AUCcrystal [2]
10	O=C(NC1CCCCC1)c1nn(-c2ccc(Cl)cc2Cl)c(-c2ccc(OS(=O)(=O)CCC(F)(F)F)cc2)c1CO [Compound B, 1-propanesulfonic acid, 3,3,3-trifluoro-, 4-[3-[(cyclohexylamino)carbonyl]-1-(2,4-dichlorophenyl)-4-(hydroxymethyl)-1H-pyrazol-5-yl]phenyl ester]	–
–	O=C(NC1CCCCC1O)c1nn(-c2ccc(Cl)cc2Cl)c(-c2ccc(OS(=O)(=O)CCC(F)(F)F)cc2)c1CO (centres unmarked) [Compound A, 1-propanesulfonic acid, 3,3,3-trifluoro-, 4-[1-(2,4-dichlorophenyl)-3-[[(2-hydroxycyclohexyl)amino]carbonyl]-4-(hydroxymethyl)-1H-pyrazol-5-yl]phenyl ester]	4.8
